Source: US20120214847A1, “2-[1-PHENYL-5-HYDROXY-4a-SUBSTITUTED-HEXAHYDROCYCLOPENTA[F]INDAZOL-5-YL]ETHYL PHENYL DERIVATIVES AS GLUCOCORTICOID RECEPTOR LIGANDS” (Merck Sharp & Dohme Corp., priority 2009, published 2012)

Molecular target: T1, glucocorticoid receptor (Homo sapiens, UniProt P04150)
T1 construct: endogenous in cells; host or cells: HeLa (ATCC) cell lysate supernatant
T1 sequence (P04150 1-777): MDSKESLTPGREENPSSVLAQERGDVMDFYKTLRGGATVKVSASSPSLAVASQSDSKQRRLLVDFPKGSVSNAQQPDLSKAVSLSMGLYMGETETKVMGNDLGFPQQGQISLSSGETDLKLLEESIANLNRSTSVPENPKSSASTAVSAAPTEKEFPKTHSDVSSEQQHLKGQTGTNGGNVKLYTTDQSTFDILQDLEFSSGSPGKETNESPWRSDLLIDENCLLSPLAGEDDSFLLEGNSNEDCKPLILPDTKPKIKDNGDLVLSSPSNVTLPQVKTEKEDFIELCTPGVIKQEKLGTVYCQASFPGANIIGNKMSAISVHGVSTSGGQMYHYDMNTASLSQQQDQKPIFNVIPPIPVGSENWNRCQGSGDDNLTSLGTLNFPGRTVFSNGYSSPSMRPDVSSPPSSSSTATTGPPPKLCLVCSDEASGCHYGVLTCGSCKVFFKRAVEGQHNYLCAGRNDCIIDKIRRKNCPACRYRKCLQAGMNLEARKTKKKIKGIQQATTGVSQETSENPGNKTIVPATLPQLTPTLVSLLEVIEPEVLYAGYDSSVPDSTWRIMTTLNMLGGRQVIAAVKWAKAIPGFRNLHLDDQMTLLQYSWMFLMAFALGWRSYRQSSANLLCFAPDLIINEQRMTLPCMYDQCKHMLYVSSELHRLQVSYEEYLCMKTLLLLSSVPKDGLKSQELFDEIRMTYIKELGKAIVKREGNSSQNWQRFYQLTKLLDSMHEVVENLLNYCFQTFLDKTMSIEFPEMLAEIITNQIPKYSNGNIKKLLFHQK
Assay: Ligand binding assay (GRBind), 3H-dexamethasone displacement in HeLa cell lysate
Conditions: 3H-DEX tracer
Method in brief: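 Cytosolic supernatant from HeLa cells in TEGM buffer (pH 7.2, with molybdate) was incubated overnight at 4 °C with 3H-dexamethasone (6 nM trace solution) and serially diluted compound, with 2% ethanol. Bound receptor was captured on hydroxylapatite, filtered and counted by scintillation. IC50s were calculated using dexamethasone as reference.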

SMILES	Ki [nM]
CC[C@]12Cc3cnn(-c4ccc(F)cc4)c3C=C1CC[C@@]2(O)CCc1nccc(C2CC2)c1C(=O)OC [Example 41, Methyl 4-cyclopropyl-2-{2-[(4aS,5R)-4a-ethyl-1-(4-fluorophenyl)-5-hydroxy-1,4,4a,5,6,7-hexahydrocyclopenta[f]indazol-5-yl]ethyl}pyridine-3-carboxylate]	2.63
CC[C@]12Cc3cnn(-c4ccc(F)cc4)c3C=C1CC[C@@]2(O)CCc1ccccc1S(C)(=O)=O [Example 42, (4aS,5R)-4a-Ethyl-1-(4-fluorophenyl)-5-{2-[2-(methylsulfonyl)phenyl]ethyl}-1,4,4a,5,6,7-hexahydrocyclopenta[f]indazol-5-ol]	1.97
CC[C@]12Cc3cnn(-c4ccc(F)cc4)c3C=C1CC[C@@]2(O)CCc1cc(C)ccn1 [Example 33, (4aS,5R)-4a-Ethyl-1-(4-fluorophenyl)-5-[2-(4-methylpyridin-2-yl)ethyl]-1,4,4a,5,6,7-hexahydrocyclopenta[f]indazol-5-ol]	2.33
CC(C)(CO)NC(=O)c1ccccc1CC[C@]1(O)CCC2=Cc3c(cnn3-c3ccc(F)cc3)C[C@@]21C1CC1 [Example 45, 2-{2-[(4aR,5R)-4a-Cyclopropyl-1-(4-fluorophenyl)-5-hydroxy-1,4,4a,5,6,7-hexahydrocyclopenta[f]indazol-5-yl]ethyl}-N-(1-hydroxy-2-methylpropan-2-yl)benzamide]	2.09
OC(C[C@]1(O)CCC2=Cc3c(cnn3-c3ccc(F)cc3)C[C@@]21C1CC1)c1ccc(F)cn1 (single isomer, unassigned) [Example 79a]	2.83
CC[C@]12Cc3cnn(-c4cccnc4)c3C=C1CC[C@@]2(O)CCc1cccc(F)c1C#N [Example 10, 2-{2-[(4aS,5R)-4a-Ethyl-5-hydroxy-1-(pyridin-3-yl)-1,4,4a,5,6,7-hexahydrocyclopenta[f]indazol-5-yl]ethyl}-6-fluorobenzonitrile]	2.59
CC[C@]12Cc3cnn(-c4ccc(F)cc4)c3C=C1CC[C@@]2(O)CC(O)c1ccc(F)cn1 (single isomer, unassigned) [Example 69b]	2.91
NC(=O)c1c(C(F)(F)F)ccnc1CC[C@]1(O)CCC2=Cc3c(cnn3-c3ccc(F)cc3)C[C@@]21C1CC1 [Example 55, 2-{2-[(4aR,5R)-4a-Cyclopropyl-1-(4-fluorophenyl)-5-hydroxy-1,4,4a,5,6,7-hexahydrocyclopenta[f]indaozol-5-yl]ethyl}-4-(trifluoromethyl)pyridine-3-carboxamide]	2.24
CC[C@]12Cc3cnn(-c4ccccc4)c3C=C1CC[C@@]2(O)CC(O)c1cc(C#N)ccn1 (stereo partly drawn) [Example 75, 2-{2-[(4aS,5R)-4a-Ethyl-5-hydroxy-1-phenyl-1,4,4a,5,6,7-hexahydrocyclopenta[f]indazol-5-yl]-1-hydroxyethyl}pyridine-4-carbonitrile]	2.97
O=S(=O)(c1ccccc1CC[C@]1(O)CCC2=Cc3c(cnn3-c3ccc(F)cc3)C[C@@]21C1CC1)C1CC1 [Example 63, (4aR,5R)-4a-Cyclopropyl-5-{2-[2-(cyclopropylsulfonyl)phenyl]ethyl}-1-(4-fluorophenyl)-1,4,4a,5,6,7-hexahydrocyclopenta[f]indazol-5-ol]	1.69
CC[C@]12Cc3cnn(-c4ccc(F)cc4)c3C=C1CC[C@@]2(O)CCc1ncccc1S(=O)(=O)C(C)C [Example 62, (4aS,5R)-4a-Ethyl-1-(4-fluorophenyl)-5-{2-[3-(propan-2-ylsulfonyl)pyridin-2-yl]ethyl}-1,4,4a,5,6,7-hexahydrocyclopenta[f]indazol-5-ol]	4.06
CC[C@]12Cc3cnn(-c4ccc(F)cc4)c3C=C1CC[C@@]2(O)CC1OC(=O)c2ccccc21 (stereo partly drawn) [Example 71, 3-{[(4aS,5R)-4a-Ethyl-1-(4-fluorophenyl)-5-hydroxy-1,4,4a,5,6,7-hexahydrocyclopenta[f]indazol-5-yl]methyl}-2-benzofuran-1(3H)-one]	2.97
CC[C@]12Cc3cnn(-c4ccc(F)cc4)c3C=C1CC[C@@]2(O)CCc1ncccc1C(N)=O [Example 52, 2-{2-[(4aS,5R)-4a-Ethyl-1-(4-fluorophenyl)-5-hydroxy-1,4,4a,5,6,7-hexahydrocyclopenta[f]indazol-5-yl]ethyl}pyridine-3-carboxamide]	9.83
CC[C@]12Cc3cnn(-c4ccc(F)cc4)c3C=C1CC[C@@]2(O)CCc1cc(C(F)(F)F)ccn1 [Example 34, (4aS,5R)-4a-Ethyl-1-(4-fluorophenyl)-5-{2-[4-(trifluoromethyl)pyridin-2-yl]ethyl}-1,4,4a,5,6,7-hexahydrocyclopenta[f]indazol-5-ol]	2.23
CC[C@]12Cc3cnn(-c4ccc(F)cc4)c3C=C1CC[C@@]2(O)CC(O)c1ncccc1Cl (stereo partly drawn) [Example 70, (4aS,5R)-5-[2-(3-Chloropyridin-2-yl)-2-hydroxyethyl]-4a-ethyl-1-(4-fluorophenyl)-1,4,4a,5,6,7-hexahydrocyclopenta[f]indazol-5-ol]	7.06
CCS(=O)(=O)c1ccccc1CC[C@]1(O)CCC2=Cc3c(cnn3-c3ccc(F)cc3)C[C@@]21C1CC1 [Example 59, (4aR,5R)-4a-Cyclopropyl-5-{2-[2-(ethylsulfonyl)phenyl]ethyl}-1-(4-fluorophenyl)-1,4,4a,5,6,7-hexahydrocyclopenta[f]indazol-5-ol]	1.36
O[C@@]1(CCc2cc(C(F)(F)F)ccn2)CCC2=Cc3c(cnn3-c3ccc(F)cc3)C[C@@]21C1CC1 [Example 32, (4aR,5R)-4a-Cyclopropyl-1-(4-fluorophenyl)-5-{2-[4-(trifluoromethyl)pyridin-2-yl]ethyl}-1,4,4a,5,6,7-hexahydrocyclopenta[f]indazol-5-ol]	2.26
CC[C@]12Cc3cnn(-c4ccccc4)c3C=C1CC[C@@]2(O)CC(O)c1ccccn1 (single isomer, unassigned) [Example 67a]	11.3
NC(=O)CNC(=O)c1cccnc1CC[C@]1(O)CCC2=Cc3c(cnn3-c3ccc(F)cc3)C[C@@]21C1CC1 [Example 43, N-(2-Amino-2-oxoethyl)-2-{2-[(4aR,5R)-4a-cyclopropyl-1-(4-fluorophenyl)-5-hydroxy-1,4,4a,5,6,7-hexahydrocyclopenta[f]indazol-5-yl]ethyl}pyridine-3-carboxamide]	5.47
CC[C@]12Cc3cnn(-c4ccc(F)cc4)c3C=C1CC[C@@]2(O)CC(O)c1cncc(F)c1 (stereo partly drawn) [Example 73, (4aS,5R)-4a-Ethyl-1-(4-fluorophenyl)-5-[2-(5-fluoropyridin-3-yl)-2-hydroxyethyl]-1,4,4a,5,6,7-hexahydrocyclopenta[f]indazol-5-ol]	5.67
CC[C@]12Cc3cnn(-c4cccnc4)c3C=C1CC[C@@]2(O)CCc1ccccc1C#N [Example 5, 2-{2-[(4aS,5R)-4a-Ethyl-5-hydroxy-1-(pyridin-3-yl)-1,4,4a,5,6,7-hexahydrocyclopenta[f]indazol-5-yl]ethyl}benzonitrile]	2.01
CC[C@]12Cc3cnn(-c4ccc(F)cc4)c3C=C1CC[C@@]2(O)CCc1ccccc1S(=O)(=O)C(C)C [Example 40, (4aS,5R)-4a-Ethyl-1-(4-fluorophenyl)-5-{2-[2-(propan-2-ylsulfonyl)phenyl]ethyl}-1,4,4a,5,6,7-hexahydrocyclopenta[f]indazol-5-ol]	2.45
NC(=O)[C@H](F)c1c(F)cccc1CC[C@]1(O)CCC2=Cc3c(cnn3-c3ccc(F)cc3)C[C@@]21C1CC1 [Example 57, (2R)-2-(2-{2-[(4aR,5R)-4a-Cyclopropyl-1-(4-fluorophenyl)-5-hydroxy-1,4,4a,5,6,7-hexahydrocyclopenta[f]indazol-5-yl]ethyl}-6-fluorophenyl)-2-fluoroethanamide]	1.5
CC[C@]12Cc3cnn(-c4ccc(F)cc4)c3C=C1CC[C@@]2(O)CCc1ccccn1 [Example 16, (4aS,5R)-4a-Ethyl-1-(4-fluorophenyl)-5-[2-(pyridin-2-yl)ethyl]-1,4,4a,5,6,7-hexahydrocyclopenta[f]indazol-5-ol]	2.22
